Assay results reported in patent US20140315322A1 (FUSO PHARMACEUTICAL INDUSTRIES, LTD., priority 2011, published 2014).
Several values for one entry are separate records, joined by “and”; a condition that tells them apart may be missing. Equal entries are not always repeated.

Assays:
clinical [1] = details: blood plasma of individual dialysis patients treated with acetic acid-containing dialysis fluid, dialysis time 4 hr
Experimental: Into a polypropylene tube, each sample (400 μL, samples for calibration curve and human blood plasma) was taken, and the internal standard solution IS-W1 (100 μL) was added thereto. Further, 10% sulfosalicylic acid (special grade, manufactured by Wako Pure Chemical Industries) solution (100 μL) was added thereto and stirred. To this solution was added MTBE (400 μL, Lot No. EPF0734, manufactured by Wako Pure Chemical Industries) and stirred for 1 minute. After that, the mixture was subjected to centrifugation (RX-200, manufactured by TOMY SEIKO) at 10000 rpm at 4° C. for 5 minutes, and the supernatant (200 μL) was taken into another glass vial. Then, to the supernatant was added N-methyl-N-(tert-butyldimethylsilyl)trifluoroacetamide (MTBSTFA) (5 to 10 μL, Lot No. BCBC7878, manufactured by ALDRICH) and heated with Block Heater (DTU-2B, manufactured by TAITEC) at 60° C. for 1 to 2 hours. After that, the resultant solution was measured by using GC/MS (JMS-AMII150, manufactured by JEOL) in the following conditions.
Samples were pretreated in the same method as that of “4. Pretreatment method and measurement method for samples” of Example 1, and then measured by GC/MS (5975C GCMSD, manufactured by Agilent) in the following conditions. […]
(§1) The measured value of each sample was calculated by applying the peak area ratio or ΔE to the calibration curve, and rounding off to one decimal place.

clinical [2] = details: blood plasma of individual dialysis patients treated with acetic acid-containing dialysis fluid, dialysis time 4 hr; remark: listed apart in the source
Experimental: From ΔE of samples for calibration curve (W2 to 8, n=1), calibration curve (Y=aX+b, Y: ΔE, X: concentration μmol/L) was prepared by using least-squares method. No weighting of calibration curve was carried out. The range of quantitative analysis was from 20 to 2000 μmol/L.
as §1

CC(=O)O [acetic acid]
Measured value, GC/MS method (clinical [1]): 1745.5 µmol/L and 1854.9 µmol/L and 1991.5 µmol/L
concentration at 4 h (clinical [1]; human, plasma, other: dialysis with a dialysis fluid containing acetic acid, Measured value, GC/MS method): 1790 µM
Measured value, Enzyme method (clinical [2]): 1620.3 µmol/L and 1653.5 µmol/L and 1896.4 µmol/L
concentration at 4 h (clinical [2]; human, plasma, other: dialysis with a dialysis fluid containing acetic acid, Measured value, Enzyme method): 1680 µM
